Measured values from patent US20240409585A1, “MACROCYCLIC IMMUNOMODULATORS” (priority 2021, published 2024).
Bridge positions count the residues as written; N and C are the ends. Square brackets hold non-standard residues; d marks the D form. Peptide text beside a SMILES is read from it. * marks the point of attachment. ξ: configuration not given here. Phe(4-COOH) = N[C@@H](Cc1ccc(C(=O)O)cc1)C(=O)O; Bip = N[C@@H](Cc1ccc(-c2ccccc2)cc1)C(=O)O; Phe(3-Me) = Cc1cccc(C[C@H](N)C(=O)O)c1; 4Pal = N[C@@H](Cc1ccncc1)C(=O)O; Cha = N[C@@H](CC1CCCCC1)C(=O)O; Cit = NC(=O)NCCC[C@H](N)C(=O)O; Carboxymethyl = O=C(O)C*; NMeA = CN[C@@H](C)C(=O)O; Dab = NCC[C@H](N)C(=O)O; Dap = NC[C@H](N)C(=O)O; ξC = NC(CS)C(=O)O

The compounds below were run against T1, PE-labeled human PD-L1-Ig binding to Jurkat cell line over-expressing human PD-1 (Jurkat-PD-1) (Homo sapiens, UniProt Q15116) (assay: Jurkat-PD-1 Cell Binding High-Content Screening Assay (CBA): Method 1). Conditions: Jurkat-hPD-1 cells, PE-labeled PD-L1-Ig 20 nM final; read-out: Jurkat HPDL1 PD1 IC50 (uM) (Method 1).
T1 construct: expressed in transfected cells; host or cells: Jurkat
T1 sequence (Q15116 25-288): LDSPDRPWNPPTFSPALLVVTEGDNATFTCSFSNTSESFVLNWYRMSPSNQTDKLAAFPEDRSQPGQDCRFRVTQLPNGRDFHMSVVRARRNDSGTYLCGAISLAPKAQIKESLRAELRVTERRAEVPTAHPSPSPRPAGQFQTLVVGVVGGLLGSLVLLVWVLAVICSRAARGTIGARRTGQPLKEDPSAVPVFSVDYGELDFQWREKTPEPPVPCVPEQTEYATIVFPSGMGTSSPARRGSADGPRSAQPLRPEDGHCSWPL

| IC50 [µM] | Structure (SMILES) |
| --- | --- |
| 0.05 | Cc1cccc(C[C@@H]2NC(=O)[C@H](CC(=O)O)NC(=O)[C@H](Cc3ccc(OCC(=O)O)cc3)NC(=O)[C@H](CN)NC(=O)CSCC(C(N)=O)NC(=O)[C@H](CO)NC(=O)[C@H](C(C)C)NC(=O)[C@H](CC(C)C)NC(=O)[C@H](CC(N)=O)NC(=O)[C@@H](CC(C)C)NC(=O)[C@H](C)N(C)C(=O)[C@H](C(C)C)NC(=O)[C@H](Cc3ccc(-c4ccccc4)cc3)NC(=O)[C@H](CC(C)C)NC2=O)c1 (stereo partly drawn) [Compound 1597] ({CH2CO}-[Dap]Y(Carboxymethyl)D[Phe(3-Me)]L[Bip]V[NMeA][dL]NLVS[ξC]-NH2; thioether N-14) |
| 0.01 | Cc1cccc(C[C@@H]2NC(=O)[C@H](CC(=O)O)NC(=O)[C@H](Cc3ccncc3)NC(=O)[C@H](Cc3ccc(OCC(=O)O)cc3)NC(=O)CSC[C@@H](C(=O)N[C@@H](CCC(=O)O)C(N)=O)NC(=O)[C@H](CO)NC(=O)[C@H](C(C)C)NC(=O)[C@H](CC(C)C)NC(=O)[C@H](CC(N)=O)NC(=O)[C@@H](CC(C)C)NC(=O)[C@H](C)N(C)C(=O)[C@H](C(C)C)NC(=O)[C@H](Cc3ccc(-c4ccccc4)cc3)NC(=O)[C@H](CC(C)C)NC2=O)c1 [Compound 1603] ({CH2CO}-Y(Carboxymethyl)[4Pal]D[Phe(3-Me)]L[Bip]V[NMeA][dL]NLVSCE-NH2; thioether N-14) |
| 0.01 | CC(C)C[C@@H]1NC(=O)[C@H](Cc2c[nH]c3ccccc23)NC(=O)[C@H](CC(=O)O)NC(=O)[C@H](Cc2ccncc2)NC(=O)[C@H](CN)NC(=O)CSC[C@@H](C(=O)NCC(N)=O)NC[C@H](CO)NC(=O)[C@H](C(C)C)NC(=O)[C@H](CC2CCCCC2)NC(=O)[C@H](CC(N)=O)NC(=O)[C@@H](CC(C)C)NC(=O)[C@H](C)N(C)C(=O)[C@H](C(C)C)NC(=O)[C@H](Cc2ccc(-c3ccccc3)cc2)NC1=O [Compound 1625] |
| 0.06 | CC(C)C[C@@H]1NC(=O)[C@H](Cc2c[nH]c3ccccc23)NC(=O)[C@H](CC(=O)O)NC(=O)[C@H](Cc2ccc(OCC(=O)O)cc2)NC(=O)[C@H](Cc2ccccc2)NC(=O)CSC[C@@H](C(N)=O)NC(=O)[C@H](CO)NC(=O)[C@H](C(C)C)NC(=O)[C@H](CC(C)C)NC(=O)[C@H](CC(N)=O)NC(=O)[C@@H](CC(C)C)NC(=O)[C@H](C)N(C)C(=O)[C@H](CCCNC(N)=O)NC(=O)[C@H](Cc2ccc(-c3ccccc3)cc2)NC1=O [Compound 1627] ({CH2CO}-FY(Carboxymethyl)DWL[Bip][Cit][NMeA][dL]NLVSC-NH2; thioether N-14) |
| 0.05 | CC[C@H](C)[C@@H]1NC(=O)[C@H](Cc2ccc(-c3ccccc3)cc2)NC(=O)[C@H](CC(C)C)NC(=O)[C@H](Cc2c[nH]c3ccccc23)NC(=O)[C@H](CC(=O)O)NC(=O)[C@H](Cc2ccc(OCC(=O)O)cc2)NC(=O)[C@H](Cc2ccccc2)NC(=O)CSC[C@@H](C(N)=O)NC(=O)[C@H](CO)NC(=O)[C@H](C(C)C)NC(=O)[C@H](CC(C)C)NC(=O)[C@H](CC(N)=O)NC(=O)[C@@H](CC(C)C)NC(=O)[C@H](C)N(C)C1=O [Compound 1629] ({CH2CO}-FY(Carboxymethyl)DWL[Bip]I[NMeA][dL]NLVSC-NH2; thioether N-14) |
| 0.13 | CC[C@H](C)[C@@H]1NC(=O)[C@H](Cc2ccc(-c3ccccc3)cc2)NC(=O)[C@H](C(C)C)NC(=O)[C@H](Cc2c[nH]c3ccccc23)NC(=O)[C@H](CC(=O)O)NC(=O)[C@H](Cc2ccc(O)cc2)NC(=O)[C@H](Cc2ccncc2)NC(=O)CSC[C@@H](C(N)=O)NC(=O)[C@H]([C@@H](C)O)NC(=O)[C@H](C(C)C)NC(=O)[C@H](CC(C)C)NC(=O)[C@H](CCN)NC(=O)[C@@H](CC(C)C)NC(=O)[C@H](C)N(C)C1=O [Compound 1632] ({CH2CO}-[4Pal]YDWV[Bip]I[NMeA][dL][Dab]LVTC-NH2; thioether N-14) |
| 0.01 | CC(C)C[C@@H]1NC(=O)[C@H](Cc2c[nH]c3ccccc23)NC(=O)[C@H](CC(=O)O)NC(=O)[C@H](Cc2ccc(C(=O)O)cc2)NC(=O)[C@H](Cc2ccc(OCC(=O)O)cc2)NC(=O)CSC[C@@H](C(N)=O)NC(=O)[C@H](CO)NC(=O)[C@H](C(C)C)NC(=O)[C@H](CC2CCCCC2)NC(=O)[C@H](CCN)NC(=O)[C@@H](CC(C)C)NC(=O)[C@H](C)N(C)C(=O)[C@H](CCCNC(N)=O)NC(=O)[C@H](Cc2ccc(-c3ccccc3)cc2)NC1=O [Compound 1636] ({CH2CO}-Y(Carboxymethyl)[Phe(4-COOH)]DWL[Bip][Cit][NMeA][dL][Dab][Cha]VSC-NH2; thioether N-14) |

Continued, compound first:

| Structure (SMILES) | IC50 [µM] |
| --- | --- |
| Cc1cccc(C[C@@H]2NC(=O)[C@H](CC(=O)O)NC(=O)[C@H](Cc3ccncc3)NC(=O)[C@H](CN)NC(=O)CSC[C@@H](C(N)=O)NC(=O)[C@H](CO)NC(=O)[C@H](C(C)C)NC(=O)[C@H](CC(C)C)NC(=O)[C@H](CC(N)=O)NC(=O)[C@@H](CC(C)C)NC(=O)[C@H](C)N(C)C(=O)[C@H](C(C)C)NC(=O)[C@H](Cc3ccc(-c4ccccc4)cc3)NC(=O)[C@H](CC(C)C)NC2=O)c1 [Compound 1598] ({CH2CO}-[Dap][4Pal]D[Phe(3-Me)]L[Bip]V[NMeA][dL]NLVSC-NH2; thioether N-14) | 0.01 |
| Cc1cccc(C[C@@H]2NC(=O)[C@H](CC(=O)O)NC(=O)[C@H](Cc3ccncc3)NC(=O)[C@H](Cc3ccc(OCC(=O)O)cc3)NC(=O)CSC[C@@H](C(=O)N[C@@H](CC(=O)O)C(N)=O)NC(=O)[C@H](CO)NC(=O)[C@H](C(C)C)NC(=O)[C@H](CC(C)C)NC(=O)[C@H](CC(N)=O)NC(=O)[C@@H](CC(C)C)NC(=O)[C@H](C)N(C)C(=O)[C@H](C(C)C)NC(=O)[C@H](Cc3ccc(-c4ccccc4)cc3)NC(=O)[C@H](CC(C)C)NC2=O)c1 [Compound 1601] ({CH2CO}-Y(Carboxymethyl)[4Pal]D[Phe(3-Me)]L[Bip]V[NMeA][dL]NLVSCD-NH2; thioether N-14) | 0.02 |
| Cc1cccc(C[C@@H]2NC(=O)[C@H](CC(=O)O)NC(=O)[C@H](Cc3ccc(C(=O)O)cc3)NC(=O)[C@H](Cc3ccc(OCC(=O)O)cc3)NC(=O)CSC[C@@H](C(=O)N[C@@H](CC(=O)O)C(N)=O)NC(=O)[C@H](CO)NC(=O)[C@H](C(C)C)NC(=O)[C@H](CC(C)C)NC(=O)[C@H](CC(N)=O)NC(=O)[C@@H](CC(C)C)NC(=O)[C@H](C)N(C)C(=O)[C@H](C(C)C)NC(=O)[C@H](Cc3ccc(-c4ccccc4)cc3)NC(=O)[C@H](CC(C)C)NC2=O)c1 [Compound 1602] ({CH2CO}-Y(Carboxymethyl)[Phe(4-COOH)]D[Phe(3-Me)]L[Bip]V[NMeA][dL]NLVSCD-NH2; thioether N-14) | 0.01 |
| Cc1cccc(C[C@@H]2NC(=O)[C@H](CC(=O)O)NC(=O)[C@H](Cc3ccc(C(=O)O)cc3)NC(=O)[C@H](Cc3ccc(OCC(=O)O)cc3)NC(=O)CSC[C@@H](C(=O)N[C@@H](CCC(=O)O)C(N)=O)NC(=O)[C@H](CO)NC(=O)[C@H](C(C)C)NC(=O)[C@H](CC(C)C)NC(=O)[C@H](CC(N)=O)NC(=O)[C@@H](CC(C)C)NC(=O)[C@H](C)N(C)C(=O)[C@H](C(C)C)NC(=O)[C@H](Cc3ccc(-c4ccccc4)cc3)NC(=O)[C@H](CC(C)C)NC2=O)c1 [Compound 1604] ({CH2CO}-Y(Carboxymethyl)[Phe(4-COOH)]D[Phe(3-Me)]L[Bip]V[NMeA][dL]NLVSCE-NH2; thioether N-14) | 0.01 |
| CC(C)C[C@@H]1NC(=O)[C@H](Cc2c[nH]c3ccccc23)NC(=O)[C@H](CC(=O)O)NC(=O)[C@H](Cc2ccc(C(=O)O)cc2)NC(=O)[C@H](Cc2ccc(OCC(=O)O)cc2)NC(=O)CSC[C@@H](C(=O)NCC(N)=O)NC[C@H](CO)NC(=O)[C@H](C(C)C)NC(=O)[C@H](CC2CCCCC2)NC(=O)[C@H](CC(N)=O)NC(=O)[C@@H](CC(C)C)NC(=O)[C@H](C)N(C)C(=O)[C@H](C(C)C)NC(=O)[C@H](Cc2ccc(-c3ccccc3)cc2)NC1=O [Compound 1623] | 0.19 |
| CC(C)C[C@@H]1NC(=O)[C@H](Cc2c[nH]c3ccccc23)NC(=O)[C@H](CC(=O)O)NC(=O)[C@H](Cc2ccc(OCC(=O)O)cc2)NC(=O)[C@H](Cc2ccccc2)NC(=O)CSC[C@@H](C(N)=O)NC(=O)[C@H](CO)NC(=O)[C@H](C(C)C)NC(=O)[C@H](CC(C)C)NC(=O)[C@H](CC(N)=O)NC(=O)[C@@H](CC(C)C)NC(=O)[C@H](C)N(C)C(=O)[C@H](CCC(=O)O)NC(=O)[C@H](Cc2ccc(-c3ccccc3)cc2)NC1=O [Compound 1628] ({CH2CO}-FY(Carboxymethyl)DWL[Bip]E[NMeA][dL]NLVSC-NH2; thioether N-14) | 0.09 |
| CC(C)C[C@@H]1NC(=O)[C@H](CC(N)=O)NC(=O)[C@@H](CC(C)C)NC(=O)[C@H](C)N(C)C(=O)[C@H](CCC(=O)O)NC(=O)[C@H](Cc2ccc(-c3ccccc3)cc2)NC(=O)[C@H](C(C)C)NC(=O)[C@H](Cc2c[nH]c3ccccc23)NC(=O)[C@H](CC(=O)O)NC(=O)[C@H](Cc2ccc(O)cc2)NC(=O)[C@H](Cc2ccncc2)NC(=O)CSC[C@@H](C(N)=O)NC(=O)[C@H]([C@@H](C)O)NC(=O)[C@H](C(C)C)NC1=O [Compound 1631] ({CH2CO}-[4Pal]YDWV[Bip]E[NMeA][dL]NLVTC-NH2; thioether N-14) | 0.11 |
| CC[C@H](C)[C@@H]1NC(=O)[C@H](Cc2ccc(-c3ccccc3)cc2)NC(=O)[C@H](CC(C)C)NC(=O)[C@H](Cc2c[nH]c3ccccc23)NC(=O)[C@H](CC(=O)O)NC(=O)[C@H](Cc2ccc(C(=O)O)cc2)NC(=O)[C@H](Cc2ccc(OCC(=O)O)cc2)NC(=O)CSC[C@@H](C(N)=O)NC(=O)[C@H](CO)NC(=O)[C@H](C(C)C)NC(=O)[C@H](CC2CCCCC2)NC(=O)[C@H](CCN)NC(=O)[C@@H](CC(C)C)NC(=O)[C@H](C)N(C)C1=O [Compound 1635] ({CH2CO}-Y(Carboxymethyl)[Phe(4-COOH)]DWL[Bip]I[NMeA][dL][Dab][Cha]VSC-NH2; thioether N-14) | 0.01 |
| Cc1cccc(C[C@@H]2NC(=O)[C@H](CC(=O)O)NC(=O)[C@H](Cc3ccc(O)cc3)NC(=O)[C@H](CC(N)=O)NC(=O)CSC[C@@H](C(N)=O)NC(=O)[C@H]([C@@H](C)O)NC(=O)[C@H](C(C)C)NC(=O)[C@H](CC(C)C)NC(=O)[C@H](CCN)NC(=O)[C@@H](CC(C)C)NC(=O)[C@H](C)N(C)C(=O)[C@H](C(C)C)NC(=O)[C@H](Cc3ccc(-c4ccccc4)cc3)NC(=O)[C@H](C(C)C)NC2=O)c1 [Compound 1637] ({CH2CO}-NYD[Phe(3-Me)]V[Bip]V[NMeA][dL][Dab]LVTC-NH2; thioether N-14) | 0.15 |
